Measurements published in ChEMBL document CHEMBL3621089, “Fluorophore-tagged pharmacophores for antitumor cytotoxicity: Modified chiral lipidic dialkynylcarbinols for cell imaging” (Bioorg Med Chem Lett, 2015).
pIC50: −log10 of the molar value.

Columns and labels:
HCT-116 [1] = test: Cytotoxicity against human HCT116 cells assessed as live cells after 48 to 72 hrs by MTT assay; assay type: functional, cell-based
HCT-116 [2] = test: Drug uptake in human HCT116 cells at 1 uM after 30 mins by confocal microscopy; assay type: ADME, cell-based; details: hct-116, 0.5 h
HeLa = test: Drug uptake in human HeLa cells at 1 uM after 30 mins using Nile Red by confocal microscopy; assay type: ADME, cell-based; details: 0.5 h
HCT-116 [3] = test: Cytotoxicity against human HCT116 cells; assay type: functional, cell-based

Row | Drug uptake (HCT-116 [2]) | Drug uptake (HeLa) | SMILES | pIC50 (HCT-116 [1]) | pIC50 (HCT-116 [3])
1 | Active |  | C#C[C@H](O)C#CCCCCCCCCCCc1cn(-c2cc3ccc(O)cc3oc2=O)nn1 | 5.52 | 
2 | Active |  | C#C[C@H](O)C#CCCCCCCCCCCc1cn(CCCNc2ccc([N+](=O)[O-])c3nonc23)nn1 | 5.96 | 
3 | Active | Active | C#C[C@H](O)C#CCCCCCCCCCCc1cn(CC2=C3C(C)=CC(C)=[N+]3[B-](F)(F)n3c(C)cc(C)c32)nn1 | 5.00 | 

More lines, now with the values behind:

Row | SMILES | Drug uptake (HCT-116 [2]) | Drug uptake (HeLa) | pIC50 (HCT-116 [1]) | pIC50 (HCT-116 [3])
4 | C#CCCCCCCCCCCC#C[C@@H](O)C#C |  |  | 6.43 | 
5 | C#C[C@H](O)C#CCCCCCCCCCCc1cn(CCCCc2ccc3ccc4cccc5ccc2c3c45)nn1 |  |  | 6.05 | 
6 | C#C[C@@H](O)/C=C/CCCCCCCCCCCCCCC |  |  | 7.05 | 7.22
